Test results as given in ChEMBL document CHEMBL1201862, “PubChem BioAssay data set” (2004).
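In this assay, cells in 96-well plates receive the compound at five concentrations for 48 hours. Endpoints are linearly interpolated between the surrounding concentrations. GI50 marks 50% less growth.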 Active and inactive are the calls of the source. Cut-off read from the data, not from the text of the source: active = GI50 up to about 1.1 µM and inactive = higher.

Legend:
Assay in all cases: growth of human tumour cells (NCI), 48 h
HL-60 = system: HL-60
NCI-H460 = system: NCI-H460
HT-29 = system: HT-29
SW-620 = system: SW-620
CCRF-CEM = system: CCRF-CEM
SK-MEL-2 = system: SK-MEL-2
IGROV-1 = system: IGROV-1
MOLT-4 = system: MOLT-4
MDA-MB-231 = system: MDA-MB-231
SK-OV-3 = system: SK-OV-3
Hs-578T = system: Hs-578T
BT-549 = system: BT-549
DU-145 = system: DU-145
UACC-62 = system: UACC-62
SF-295 = system: SF-295
NCI/ADR-RES = system: NCI/ADR-RES
786-0 = system: 786-0
SR = system: SR
HOP-92 = system: HOP-92
A498 = system: A498

O=C(Nc1ccccc1)OCCN=C1c2ccccc2CCc2ccccc21
GI50 (HL-60): 13.8 µM (inactive)
GI50 (NCI-H460): 21.4 µM (inactive)
GI50 (HT-29): 18.5 µM (inactive)
GI50 (SW-620): 35 µM (inactive)
GI50 (CCRF-CEM): 20.6 µM (inactive)
GI50 (SK-MEL-2): 15 µM (inactive)
GI50 (IGROV-1): 19.1 µM (inactive)
GI50 (MOLT-4): 9.73 µM (inactive)
GI50 (MDA-MB-231): 15.1 µM (inactive)
GI50 (SK-OV-3): 23.6 µM (inactive)
GI50 (Hs-578T): 18.5 µM (inactive)
GI50 (BT-549): 21 µM (inactive)
GI50 (DU-145): 24.5 µM (inactive)
GI50 (UACC-62): 13.1 µM (inactive)
GI50 (SF-295): 15.5 µM (inactive)
GI50 (NCI/ADR-RES): 19.7 µM (inactive)
GI50 (786-0): 32.6 µM (inactive)
GI50 (SR): 12.2 µM (inactive)

c1ccc(/N=C(\N2CCOCC2)N(CCN2CCOCC2)c2ccccc2)cc1
GI50 (HL-60): > 10 µM (inactive)
GI50 (NCI-H460): > 100 µM (inactive)
GI50 (HT-29): > 100 µM (inactive)
GI50 (SW-620): > 100 µM (inactive)
GI50 (CCRF-CEM): > 100 µM (inactive)
GI50 (SK-MEL-2): > 100 µM (inactive)
GI50 (IGROV-1): > 100 µM (inactive)
GI50 (MOLT-4): > 100 µM (inactive)
GI50 (MDA-MB-231): > 100 µM (inactive)
GI50 (SK-OV-3): > 100 µM (inactive)
GI50 (Hs-578T): > 100 µM (inactive)
GI50 (BT-549): > 100 µM (inactive)
GI50 (DU-145): > 100 µM (inactive)
GI50 (UACC-62): > 100 µM (inactive)
GI50 (SF-295): > 100 µM (inactive)
GI50 (NCI/ADR-RES): > 10 µM (inactive)
GI50 (786-0): > 100 µM (inactive)
GI50 (SR): > 100 µM (inactive)

CC(=O)Oc1ccc2c3c1[C@@H]1O[C@@H]1c1cccc(c1-3)[C@@H]1O[C@H]21
GI50 (HL-60): 0.883 µM (active)
GI50 (HT-29): 1.81 µM (inactive)
GI50 (HOP-92): 1.81 µM (inactive)
GI50 (SW-620): 1.14 µM (inactive)
GI50 (CCRF-CEM): 0.601 µM (active)
GI50 (SK-MEL-2): 2.37 µM (inactive)
GI50 (MDA-MB-231): 2.02 µM (inactive)
GI50 (SK-OV-3): 3.44 µM (inactive)
GI50 (Hs-578T): 2.87 µM (inactive)
GI50 (BT-549): 1.87 µM (inactive)
GI50 (DU-145): 1.91 µM (inactive)
GI50 (UACC-62): 1.87 µM (inactive)
GI50 (SF-295): 1.94 µM (inactive)
GI50 (NCI/ADR-RES): 1.82 µM (inactive)
GI50 (A498): 2.19 µM (inactive)
GI50 (786-0): 1.48 µM (inactive)

c1ccc(CCCN2C3CCC2CN(CCOC(c2ccccc2)c2ccccc2)C3)cc1
GI50 (HL-60): 5.69 µM (inactive)
GI50 (NCI-H460): 8.75 µM (inactive)
GI50 (HT-29): 3.58 µM (inactive)
GI50 (HOP-92): 12.5 µM (inactive)
GI50 (SW-620): 15.6 µM (inactive)
GI50 (CCRF-CEM): 9.82 µM (inactive)
GI50 (SK-MEL-2): 10.6 µM (inactive)
GI50 (IGROV-1): 13.8 µM (inactive)
GI50 (MOLT-4): 8.43 µM (inactive)
GI50 (MDA-MB-231): 8.3 µM (inactive)
GI50 (SK-OV-3): 13.7 µM (inactive)
GI50 (Hs-578T): 13.9 µM (inactive)
GI50 (BT-549): 12.4 µM (inactive)
GI50 (DU-145): 16.4 µM (inactive)
GI50 (UACC-62): 12.9 µM (inactive)
GI50 (SF-295): 12.2 µM (inactive)
GI50 (NCI/ADR-RES): 8.17 µM (inactive)
GI50 (A498): 10.1 µM (inactive)
GI50 (786-0): 10 µM (inactive)

COC(=O)C(=O)C(C(=O)C(=O)Nc1ccc(C)cc1C)c1nc2ccc(Cl)cc2nc1O (stereo not drawn)
GI50 (HL-60): 78 µM (inactive)
GI50 (NCI-H460): > 100 µM (inactive)
GI50 (HT-29): > 100 µM (inactive)
GI50 (HOP-92): > 100 µM (inactive)
GI50 (SW-620): > 100 µM (inactive)
GI50 (CCRF-CEM): > 100 µM (inactive)
GI50 (SK-MEL-2): > 100 µM (inactive)
GI50 (IGROV-1): > 100 µM (inactive)
GI50 (MOLT-4): > 100 µM (inactive)
GI50 (MDA-MB-231): > 100 µM (inactive)
GI50 (SK-OV-3): > 100 µM (inactive)
GI50 (Hs-578T): > 100 µM (inactive)
GI50 (BT-549): > 100 µM (inactive)
GI50 (DU-145): > 100 µM (inactive)
GI50 (UACC-62): > 100 µM (inactive)
GI50 (SF-295): > 100 µM (inactive)
GI50 (NCI/ADR-RES): > 100 µM (inactive)
GI50 (786-0): > 100 µM (inactive)

CC1CC(Nc2ccc(Br)cc2)N(C(=O)c2ccc(Br)cc2)O1 (stereo not drawn)
GI50 (HL-60): 3.76 µM (inactive)
GI50 (NCI-H460): 7.48 µM (inactive)
GI50 (HT-29): 1.73 µM (inactive)
GI50 (SW-620): 1.31 µM (inactive)
GI50 (CCRF-CEM): 2.51 µM (inactive)
GI50 (SK-MEL-2): > 10 µM (inactive)
GI50 (IGROV-1): 9.73 µM (inactive)
GI50 (MOLT-4): 5.74 µM (inactive)
GI50 (MDA-MB-231): > 10 µM (inactive)
GI50 (SK-OV-3): > 10 µM (inactive)
GI50 (Hs-578T): 8.3 µM (inactive)
GI50 (BT-549): > 10 µM (inactive)
GI50 (DU-145): 2.62 µM (inactive)
GI50 (SF-295): 2.42 µM (inactive)
GI50 (NCI/ADR-RES): 2.19 µM (inactive)
GI50 (786-0): > 10 µM (inactive)
GI50 (SR): 2.19 µM (inactive)

O=C(O)c1ccc(Nc2nc3cc(C(F)(F)F)ccc3nc2-c2ccccc2)cc1
GI50 (HL-60): 27.7 µM (inactive)
GI50 (NCI-H460): 19.1 µM (inactive)
GI50 (HT-29): 14.1 µM (inactive)
GI50 (SW-620): 17.2 µM (inactive)
GI50 (CCRF-CEM): 22.3 µM (inactive)
GI50 (IGROV-1): 13.4 µM (inactive)
GI50 (MOLT-4): 24.9 µM (inactive)
GI50 (MDA-MB-231): 32.1 µM (inactive)
GI50 (Hs-578T): 17.6 µM (inactive)
GI50 (BT-549): 62.5 µM (inactive)
GI50 (DU-145): 25.8 µM (inactive)
GI50 (UACC-62): 10.4 µM (inactive)
GI50 (SF-295): 13.4 µM (inactive)
GI50 (NCI/ADR-RES): 22.5 µM (inactive)
GI50 (786-0): 18.7 µM (inactive)
GI50 (SR): 6.89 µM (inactive)

Cc1ccc(S(=O)(=O)Nc2ccccc2C(=O)c2ccc(C)c(C)c2)cc1
GI50 (NCI-H460): 80.2 µM (inactive)
GI50 (HT-29): > 100 µM (inactive)
GI50 (SW-620): > 100 µM (inactive)
GI50 (SK-MEL-2): > 100 µM (inactive)
GI50 (IGROV-1): 34.6 µM (inactive)
GI50 (MDA-MB-231): > 100 µM (inactive)
GI50 (SK-OV-3): > 100 µM (inactive)
GI50 (Hs-578T): 60.5 µM (inactive)
GI50 (BT-549): > 100 µM (inactive)
GI50 (DU-145): > 100 µM (inactive)
GI50 (UACC-62): 88.5 µM (inactive)
GI50 (SF-295): 75 µM (inactive)
GI50 (NCI/ADR-RES): > 100 µM (inactive)
GI50 (A498): 94.6 µM (inactive)
GI50 (786-0): > 100 µM (inactive)

CC[N+]1(C)CCC(O)(/C=C/c2ccc(OC)cc2)C(C(=O)/C=C/c2ccc(OC)cc2)C1 (stereo not drawn)
GI50 (HL-60): 1.52 µM (inactive)
GI50 (NCI-H460): 9.53 µM (inactive)
GI50 (HT-29): 13.2 µM (inactive)
GI50 (HOP-92): 15.5 µM (inactive)
GI50 (SW-620): 2.7 µM (inactive)
GI50 (CCRF-CEM): 0.548 µM (active)
GI50 (SK-MEL-2): 19 µM (inactive)
GI50 (IGROV-1): 21.8 µM (inactive)
GI50 (MOLT-4): 1.94 µM (inactive)
GI50 (MDA-MB-231): 23.9 µM (inactive)
GI50 (SK-OV-3): 19.1 µM (inactive)
GI50 (Hs-578T): 11.7 µM (inactive)
GI50 (BT-549): 20.1 µM (inactive)
GI50 (DU-145): 14.2 µM (inactive)
GI50 (UACC-62): 17.8 µM (inactive)
GI50 (SF-295): 18.6 µM (inactive)
GI50 (NCI/ADR-RES): 27.1 µM (inactive)
GI50 (A498): 16.7 µM (inactive)
GI50 (786-0): 3.13 µM (inactive)

COc1ccc(CCN2CCc3c(C)c(C#N)c4nc5ccccc5n4c32)cc1OC
GI50 (HL-60): 33.9 µM (inactive)
GI50 (NCI-H460): 20.2 µM (inactive)
GI50 (HT-29): 32.6 µM (inactive)
GI50 (HOP-92): 22.8 µM (inactive)
GI50 (SW-620): 26.6 µM (inactive)
GI50 (CCRF-CEM): 35.4 µM (inactive)
GI50 (SK-MEL-2): 16.3 µM (inactive)
GI50 (IGROV-1): 37.2 µM (inactive)
GI50 (MDA-MB-231): 19.1 µM (inactive)
GI50 (SK-OV-3): 81.3 µM (inactive)
GI50 (Hs-578T): 12.9 µM (inactive)
GI50 (BT-549): 27.2 µM (inactive)
GI50 (DU-145): 81.7 µM (inactive)
GI50 (UACC-62): 24.2 µM (inactive)
GI50 (SF-295): 42.4 µM (inactive)
GI50 (NCI/ADR-RES): 27.4 µM (inactive)
GI50 (A498): 54.6 µM (inactive)
GI50 (786-0): 56.8 µM (inactive)

C=C1C2C[C@@H]3O[C@H]4C[C@H]5O[C@@]6(C[C@@H]7O[C@]8(C[C@H](C)[C@@H]9O[C@@H]%10CC(C=O)O[C@@H]%10C[C@@H]9O8)C[C@H](C)[C@@H]7O6)C[C@H]5O[C@H]4[C@H](C)[C@H]3OC(=O)C[C@H]3CC[C@@H]4OC5[C@H]6O[C@]7(CC[C@H]8CC(=C)[C@H](CC[C@@H](C[C@H]1C)O2)O8)CC6O[C@@H]5[C@@H](O7)[C@H]4O3 (stereo partly drawn)
GI50 (NCI-H460): < 0.0001 µM (active)
GI50 (HOP-92): 0.000724 µM (active)
GI50 (SW-620): < 0.0001 µM (active)
GI50 (IGROV-1): < 0.0001 µM (active)
GI50 (MOLT-4): < 0.0001 µM (active)
GI50 (MDA-MB-231): 0.000229 µM (active)
GI50 (Hs-578T): < 0.0001 µM (active)
GI50 (BT-549): < 0.0001 µM (active)
GI50 (DU-145): < 0.0001 µM (active)
GI50 (UACC-62): < 0.0001 µM (active)
GI50 (SF-295): < 0.0001 µM (active)
GI50 (NCI/ADR-RES): 0.000951 µM (active)
GI50 (786-0): < 0.0001 µM (active)
GI50 (SR): < 0.0001 µM (active)
